Measured values reported in ChEMBL document CHEMBL4342471, “Discovery of Thieno[2,3-d]pyrimidine-Based Hydroxamic Acid Derivatives as Bromodomain-Containing Protein 4/Histone Deacetylase Dual Inhibitors Induce Autophagic Cell Death in Colorectal Carcinoma Cells” (J Med Chem, 2020).

Experiments:
Histone deacetylase 2 = Histone deacetylase 2 (Homo sapiens, UniProt Q92769)
HCT-116 = assay: Antiproliferative activity against human HCT116 cells assessed as reduction in cell viability measured after 24 to 48 hrs by MTT assay; format: functional, cell-based
Histone deacetylase 7 = target: T1, Histone deacetylase 7 (Homo sapiens, UniProt Q8WUI4); assay: Inhibition of HDAC7 (unknown origin) using biotinylated histone H3 KAc peptide (1 to 21 residues) as substrate by HTRF assay
T1 sequence (Q8WUI4 whole entry): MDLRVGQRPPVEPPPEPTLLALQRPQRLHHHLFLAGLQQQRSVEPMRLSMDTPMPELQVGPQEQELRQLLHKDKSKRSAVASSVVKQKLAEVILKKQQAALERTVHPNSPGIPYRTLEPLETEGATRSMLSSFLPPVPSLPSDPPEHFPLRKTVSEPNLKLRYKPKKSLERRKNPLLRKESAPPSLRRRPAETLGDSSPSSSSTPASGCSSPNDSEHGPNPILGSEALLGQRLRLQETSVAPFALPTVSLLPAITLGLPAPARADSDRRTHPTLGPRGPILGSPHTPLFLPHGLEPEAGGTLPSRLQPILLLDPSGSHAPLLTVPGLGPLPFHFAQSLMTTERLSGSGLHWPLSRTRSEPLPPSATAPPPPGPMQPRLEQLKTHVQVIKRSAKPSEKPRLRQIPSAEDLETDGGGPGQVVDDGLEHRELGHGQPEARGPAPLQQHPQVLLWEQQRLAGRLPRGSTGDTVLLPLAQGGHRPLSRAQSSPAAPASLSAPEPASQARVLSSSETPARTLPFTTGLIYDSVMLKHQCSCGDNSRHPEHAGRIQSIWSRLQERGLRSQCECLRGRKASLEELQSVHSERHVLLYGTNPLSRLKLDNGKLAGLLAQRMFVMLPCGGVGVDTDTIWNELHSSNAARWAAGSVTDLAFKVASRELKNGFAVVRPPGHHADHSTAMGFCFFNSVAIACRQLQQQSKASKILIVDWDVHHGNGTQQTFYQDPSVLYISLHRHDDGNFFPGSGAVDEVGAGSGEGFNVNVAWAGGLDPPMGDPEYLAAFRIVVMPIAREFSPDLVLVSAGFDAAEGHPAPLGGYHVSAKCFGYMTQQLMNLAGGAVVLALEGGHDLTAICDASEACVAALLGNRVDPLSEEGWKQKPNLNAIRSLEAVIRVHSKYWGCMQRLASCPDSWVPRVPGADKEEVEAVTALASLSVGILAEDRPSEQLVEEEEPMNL

[1] = target: T2, Protein deacetylase HDAC6 (Homo sapiens, UniProt Q9UBN7); assay: Inhibition of HDAC6 (unknown origin) using biotinylated histone H3 KAc peptide (1 to 21 residues) as substrate by HTRF assay
T2 sequence (Q9UBN7 whole entry): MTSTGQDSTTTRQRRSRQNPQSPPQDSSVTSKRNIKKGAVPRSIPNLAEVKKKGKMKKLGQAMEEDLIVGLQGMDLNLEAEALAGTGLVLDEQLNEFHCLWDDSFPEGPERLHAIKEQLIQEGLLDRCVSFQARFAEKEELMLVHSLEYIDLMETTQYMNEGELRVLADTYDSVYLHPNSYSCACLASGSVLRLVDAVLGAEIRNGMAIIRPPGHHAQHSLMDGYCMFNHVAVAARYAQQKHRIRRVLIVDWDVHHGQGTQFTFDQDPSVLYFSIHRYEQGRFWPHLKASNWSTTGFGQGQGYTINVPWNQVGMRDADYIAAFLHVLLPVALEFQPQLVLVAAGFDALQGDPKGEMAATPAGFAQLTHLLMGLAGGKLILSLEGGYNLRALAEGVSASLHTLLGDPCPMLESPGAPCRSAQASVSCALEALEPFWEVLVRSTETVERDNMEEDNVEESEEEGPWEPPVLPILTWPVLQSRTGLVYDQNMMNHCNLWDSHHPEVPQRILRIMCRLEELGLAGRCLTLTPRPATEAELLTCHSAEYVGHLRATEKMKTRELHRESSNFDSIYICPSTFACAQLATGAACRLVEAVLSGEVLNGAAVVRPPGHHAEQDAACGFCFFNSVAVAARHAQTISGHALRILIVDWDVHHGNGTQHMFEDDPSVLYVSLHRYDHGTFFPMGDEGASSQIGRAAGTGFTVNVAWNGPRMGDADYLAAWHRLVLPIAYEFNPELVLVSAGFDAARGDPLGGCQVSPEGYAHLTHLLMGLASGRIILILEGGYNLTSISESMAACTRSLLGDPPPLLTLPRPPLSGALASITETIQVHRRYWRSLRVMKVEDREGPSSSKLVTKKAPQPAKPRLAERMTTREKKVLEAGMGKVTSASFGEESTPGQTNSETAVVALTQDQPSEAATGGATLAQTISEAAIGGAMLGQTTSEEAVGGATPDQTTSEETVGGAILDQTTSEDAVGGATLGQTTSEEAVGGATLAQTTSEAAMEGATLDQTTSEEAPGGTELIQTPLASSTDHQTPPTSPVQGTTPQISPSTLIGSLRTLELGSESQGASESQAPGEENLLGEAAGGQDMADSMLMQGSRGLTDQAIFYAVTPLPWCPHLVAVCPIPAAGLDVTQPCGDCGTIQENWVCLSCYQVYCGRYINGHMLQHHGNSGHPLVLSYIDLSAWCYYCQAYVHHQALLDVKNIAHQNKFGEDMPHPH

[2] = target: Bromodomain-containing protein 4 (Homo sapiens, UniProt O60885); assay: Inhibition of GST-tagged BRD4 bromodomain (unknown origin) using biotinylated histone H4KAc peptide (1 to 21 residues) as substrate by HTRF assay
SW-620 = assay: Antiproliferative activity against human SW620 cells assessed as reduction in cell viability measured after 24 to 48 hrs by MTT assay; format: functional, cell-based
DLD-1 = assay: Antiproliferative activity against human DLD1 cells assessed as reduction in cell viability measured after 24 to 48 hrs by MTT assay; format: functional, cell-based

Chain of Histone deacetylase 2 (Q92769 whole entry): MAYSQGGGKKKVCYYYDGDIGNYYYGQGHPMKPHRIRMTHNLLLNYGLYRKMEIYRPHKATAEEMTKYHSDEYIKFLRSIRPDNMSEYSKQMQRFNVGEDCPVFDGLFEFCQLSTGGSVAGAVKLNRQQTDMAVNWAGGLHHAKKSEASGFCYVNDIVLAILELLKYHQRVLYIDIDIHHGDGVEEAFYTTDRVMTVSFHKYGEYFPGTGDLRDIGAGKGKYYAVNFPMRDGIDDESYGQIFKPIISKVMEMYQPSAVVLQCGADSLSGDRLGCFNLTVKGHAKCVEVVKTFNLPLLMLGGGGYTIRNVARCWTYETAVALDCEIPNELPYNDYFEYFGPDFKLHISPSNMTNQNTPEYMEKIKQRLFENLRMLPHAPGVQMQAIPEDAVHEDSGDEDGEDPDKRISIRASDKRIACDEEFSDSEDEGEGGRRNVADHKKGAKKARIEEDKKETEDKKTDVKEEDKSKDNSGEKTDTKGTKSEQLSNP

Row | Compound | IC50 (Histone deacetylase 2) [µM] | IC50 (HCT-116) [µM] | IC50 (Histone deacetylase 7) [µM] | IC50 [1] [µM] | IC50 [2] [µM] | IC50 (SW-620) [µM] | IC50 (DLD-1) [µM]
1 | Cc1cc(-c2nc3sc4c(c3c(=O)[nH]2)CCN(C)C4)cc(C)c1OCc1ccc(C(=O)NO)cc1 | 0.105 | 1.07 | > 10 | 0.188 | 1.77 | 3.87 | 6.24
2 | Cc1cc(-c2nc3sc4c(c3c(=O)[nH]2)CCN(Cc2ccccc2)C4)cc(C)c1O |  | > 10 |  |  | > 10 |  | 
3 | CCN1CCc2c(sc3nc(-c4cc(C)cc(C)c4)[nH]c(=O)c23)C1 |  | > 10 |  |  | > 10 |  | 
4 | CN1CCc2c(sc3nc(-c4ccc(O)cc4)[nH]c(=O)c23)C1 |  | 8.68 |  |  | 6.31 |  | 
5 | Cc1cc(C)cc(-c2nc3sc4c(c3c(=O)[nH]2)CCN(Cc2ccccc2)C4)c1 |  | > 10 |  |  | > 10 |  | 
6 | O=c1[nH]c(-c2ccc(O)cc2)nc2sc3c(c12)CCCC3 |  | 9.73 |  |  | 5.77 |  | 
7 | CCN1CCc2c(sc3nc(-c4cc(C)c(O)c(C)c4)[nH]c(=O)c23)C1 |  | 8.91 |  |  | 5.6 |  | 
8 | Cc1noc(C)c1-c1nc2sc3c(c2c(=O)[nH]1)CCN(CCCC(=O)NO)C3 | 0.282 | 18 | > 10 | 0.464 | > 10 | 9.86 | 19.6
9 | COC(=O)CCCCCN1CCc2c(sc3nc(-c4c(C)noc4C)[nH]c(=O)c23)C1 |  | 17 |  |  | 3.62 |  | 
10 | CCN1CCc2c(sc3nc(-c4ccccc4)[nH]c(=O)c23)C1 |  | > 10 |  |  | > 10 |  | 
11 | CN1CCc2c(sc3nc(-c4ccccc4)[nH]c(=O)c23)C1 |  | > 10 |  |  | > 10 |  | 
12 | Oc1nc(-c2ccccc2)nc2sc3c(c12)CCCC3 |  | > 10 |  |  | > 10 |  | 
13 | COC(=O)CN1CCc2c(sc3nc(-c4c(C)noc4C)[nH]c(=O)c23)C1 |  | 16.2 |  |  | 6.68 |  | 
14 | Cc1cc(-c2nc3sc4c(c3c(=O)[nH]2)CCN(C)C4)cc(C)c1OCc1ccc(/C=C/C(=O)NO)cc1 | 0.097 | 0.92 | > 10 | 0.202 | 1.19 | 2.34 | 3.67
15 | Cc1noc(C)c1-c1nc2sc3c(c2c(=O)[nH]1)CCN(CC(=O)NO)C3 | 0.489 | 22.8 | > 10 | 0.455 | > 10 | 19.6 | 22.6
16 | Cc1noc(C)c1-c1nc2sc3c(c2c(=O)[nH]1)CCN(CCCCCC(=O)Nc1ccccc1N)C3 | 0.112 | 15.2 | > 10 | 0.196 | > 10 | 11.1 | 14.8
17 | Cc1noc(C)c1-c1nc2sc3c(c2c(=O)[nH]1)CCN(CCCCCC(=O)NO)C3 | 0.135 | 15.3 | > 10 | 0.156 | > 10 | 8.47 | 16.8
18 | O=c1[nH]c(-c2ccc(O)cc2)nc2sc3c(c12)CCN(Cc1ccccc1)C3 |  | > 10 |  |  | > 10 |  | 

Row | Compound | IC50 (Histone deacetylase 2) [µM] | IC50 (HCT-116) [µM] | IC50 (Histone deacetylase 7) [µM] | IC50 [1] [µM] | IC50 [2] [µM] | IC50 (SW-620) [µM] | IC50 (DLD-1) [µM]
19 | Cc1cc(C)cc(-c2nc3sc4c(c3c(=O)[nH]2)CCCC4)c1 |  | > 10 |  |  | > 10 |  | 
20 | Cc1cc(-c2nc3sc4c(c3c(=O)[nH]2)CCN(C)C4)cc(C)c1OCc1cccc(C(=O)Nc2ccccc2N)c1 | 0.86 | 4.53 | > 10 | > 10 | 3.48 | > 10 | > 10
21 | O=c1[nH]c(-c2ccccc2)nc2sc3c(c12)CCC3 |  | > 10 |  |  | > 10 |  | 
22 | O=c1[nH]c(-c2ccc(O)cc2)nc2sc3c(c12)CCC3 |  | > 10 |  |  | 9.28 |  | 
23 | Cc1cc(-c2nc3sc4c(c3c(=O)[nH]2)CCN(CCCCCC(=O)NO)C4)cc(C)c1O | 0.136 | > 10 | > 10 | 0.129 | > 10 | 15.8 | > 10
24 | Cc1cc(-c2nc3sc4c(c3c(=O)[nH]2)CCN(C)C4)cc(C)c1OCCOCc1ccc(/C=C/C(=O)NO)cc1 | 0.085 | 0.69 | > 10 | 0.159 | 0.98 | 3.85 | 3.04
25 | Cc1cc(-c2nc3sc4c(c3c(=O)[nH]2)CCN(C)C4)cc(C)c1OCc1ccc(C(=O)Nc2ccccc2N)cc1 | 0.14 | 4.32 | > 10 | > 10 | 2.55 | 5.49 | > 10
26 | Cc1cc(-c2nc3sc4c(c3c(=O)[nH]2)CCN(C)C4)cc(C)c1OCc1cccc(C(=O)NO)c1 | 0.251 | 5.49 | > 10 | 0.78 | 1.93 | 7.83 | 9.16
27 | CCN1CCc2c(sc3nc(-c4ccc(O)cc4)[nH]c(=O)c23)C1 |  | > 10 |  |  | > 10 |  | 
28 | Cc1cc(-c2nc3sc4c(c3c(=O)[nH]2)CCN(C)C4)cc(C)c1OCCCC(=O)NO | 0.16 | 2.08 | > 10 | 0.25 | 1.17 | 3.83 | 9.72
29 | Cc1noc(C)c1-c1nc2sc3c(c2c(=O)[nH]1)CCN(C)C3 |  | 9.77 |  |  | 2.41 |  | 
30 | Cc1cc(-c2nc3sc4c(c3c(=O)[nH]2)CCN(C)C4)cc(C)c1OCCCCCC(=O)Nc1ccccc1N | 0.17 | 6.93 | > 10 | > 10 | 2.19 | 9.87 | > 10
31 | Cc1cc(-c2nc3sc4c(c3c(=O)[nH]2)CCCC4)cc(C)c1O |  | 5.41 |  |  | 1.81 |  | 
32 | Cc1cc(-c2nc3sc4c(c3c(=O)[nH]2)CCC4)cc(C)c1O |  | 4.85 |  |  | 2.64 |  | 
33 | COC(=O)CCCN1CCc2c(sc3nc(-c4c(C)noc4C)[nH]c(=O)c23)C1 |  | 12.7 |  |  | 5.93 |  | 
34 | O=c1[nH]c(-c2ccccc2)nc2sc3c(c12)CCN(Cc1ccccc1)C3 |  | > 10 |  |  | > 10 |  | 
35 | Cc1cc(C)cc(-c2nc3sc4c(c3c(=O)[nH]2)CCN(C)C4)c1 |  | > 10 |  |  | > 10 |  | 
36 | Cc1cc(C)cc(-c2nc3sc4c(c3c(=O)[nH]2)CCC4)c1 |  | > 10 |  |  | > 10 |  | 
